# Assay results: US20250171437A1 (Agios Pharmaceuticals,Inc., priority 2022, published 2025)
# Target: T1, human PAH with the R408W mutation (A375 R408W cells) (Homo sapiens, UniProt P00439, R408W)
# T1 construct: expressed in transfected cells
# T1 sequence (P00439 1-452 R408W): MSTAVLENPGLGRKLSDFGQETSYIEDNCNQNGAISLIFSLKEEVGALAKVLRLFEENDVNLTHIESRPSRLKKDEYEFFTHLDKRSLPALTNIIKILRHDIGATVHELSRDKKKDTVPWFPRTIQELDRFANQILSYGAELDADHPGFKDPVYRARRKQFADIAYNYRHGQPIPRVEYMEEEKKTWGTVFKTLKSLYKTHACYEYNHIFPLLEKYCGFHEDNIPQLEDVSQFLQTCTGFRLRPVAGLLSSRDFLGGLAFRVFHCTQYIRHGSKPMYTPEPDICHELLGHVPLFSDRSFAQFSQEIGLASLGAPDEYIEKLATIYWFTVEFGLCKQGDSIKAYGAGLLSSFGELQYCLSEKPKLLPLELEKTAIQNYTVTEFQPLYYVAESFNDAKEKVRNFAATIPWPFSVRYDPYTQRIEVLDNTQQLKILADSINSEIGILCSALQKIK
# Experiment: Cell Based Phenylalanine Flux Assay
# Settings: A375 R408W cells; 24 hrs with compound, then 20 μM sepiapterin and 800 μM 13C9,15N-Phenylalanine for 4 hours; 13C-Tyrosine by LC-MS; average where tested multiple times
# How it was run: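 A375 cells stably expressing human PAH R408W treated 24 h at 37° C with a 10-point 2-fold dose curve in duplicate, 0.5% DMSO. Then 20 μM sepiapterin and 800 μM 13C9,15N-Phe added for 4 h; 13C-Tyr in media measured by LC-MS to give AC50.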
row,SMILES,AC50 [µM]
1,"CC(C)(O)c1nc(C(F)F)c(C(=O)N2CCc3[nH]cnc3[C@H]2c2nc3cc(OC(F)(F)F)ccc3o2)o1 [Example 351, (S)-(4-(difluoromethyl)-2-(2-hydroxypropan-2-yl)oxazol-5-yl)(4-(5-(trifluoromethoxy)benzo[d]oxazol-2-yl)-6,7-dihydro-1H-imidazo[4,5-c]pyridin-5(4H)-yl)methanone]",≤ 0.5
2,"Cc1cccc2nc([C@H]3c4nc[nH]c4CCN3C(=O)c3oc(C(C)(C)O)nc3C(F)F)oc12 [Example 391, (R)-(4-(difluoromethyl)-2-(2-hydroxypropan-2-yl)oxazol-5-yl)(4-(7-methylbenzo[d]oxazol-2-yl)-6,7-dihydro-1H-imidazo[4,5-c]pyridin-5(4H)-yl)methanone]",1 to 5
3,"COc1cccc2oc([C@@H]3c4nc[nH]c4CCN3C(=O)c3oc(C(C)(C)O)nc3C(F)F)nc12 [Example 427, (S)-(4-(difluoromethyl)-2-(2-hydroxypropan-2-yl)oxazol-5-yl)(4-(4-methoxybenzo[d]oxazol-2-yl)-6,7-dihydro-1H-imidazo[4,5-c]pyridin-5(4H)-yl)methanone]",≤ 0.5
4,"O=C(c1nnc(-c2c(F)cccc2F)o1)N1CCc2[nH]cnc2[C@H]1c1nc2cc(F)ccc2o1 [Example 25, (S)-(5-(2,6-difluorophenyl)-1,3,4-oxadiazol-2-yl)(4-(5-fluorobenzo[d]oxazol-2-yl)-6,7-dihydro-1H-imidazo[4,5-c]pyridin-5(4H)-yl)methanone]",≤ 0.5
5,"CC(O)c1nc(Cl)c(C(=O)N2CCc3[nH]cnc3[C@@H]2c2nc3cc(F)ccc3o2)o1 (single isomer, unassigned) [Example 233]",1 to 5
6,"COc1ccc2oc([C@@H]3c4nc[nH]c4CCN3C(=O)c3nc(C(F)F)nn3C)nc2c1 [Example 549, (S)-(3-(difluoromethyl)-1-methyl-1H-1,2,4-triazol-5-yl)(4-(5-methoxybenzo[d]oxazol-2-yl)-6,7-dihydro-1H-imidazo[4,5-c]pyridin-5(4H)-yl)methanone]",0.5 to 1
7,"O=C(c1oc(-c2ccccn2)nc1C(F)F)N1CCc2[nH]cnc2[C@H]1c1nc2cccc(F)c2o1 [Example 587, (S)-(4-(difluoromethyl)-2-(pyridin-2-yl)oxazol-5-yl)(4-(7-fluorobenzo[d]oxazol-2-yl)-6,7-dihydro-1H-imidazo[4,5-c]pyridin-5(4H)-yl)methanone]",≤ 0.5
8,"Cn1nccc1-c1nnc(C(=O)N2CCc3[nH]cnc3[C@H]2c2nc3cc(F)ccc3o2)o1 [Example 131, (S)-(4-(5-fluorobenzo[d]oxazol-2-yl)-6,7-dihydro-1H-imidazo[4,5-c]pyridin-5(4H)-yl)(5-(1-methyl-1H-pyrazol-5-yl)-1,3,4-oxadiazol-2-yl)methanone]",0.5 to 1
9,"O=C(c1oc(-c2ncccn2)nc1C(F)F)N1CCc2[nH]cnc2[C@H]1c1nc2cccc(F)c2o1 [Example 667, (S)-(4-(difluoromethyl)-2-(pyrimidin-2-yl)oxazol-5-yl)(4-(7-fluorobenzo[d]oxazol-2-yl)-6,7-dihydro-1H-imidazo[4,5-c]pyridin-5(4H)-yl)methanone]",≤ 0.5
10,"O=C(c1cnco1)N1CCc2[nH]cnc2[C@@H]1c1nc2cc(F)cc(F)c2o1 [Example 576, (R)-(4-(5,7-difluorobenzo[d]oxazol-2-yl)-6,7-dihydro-1H-imidazo[4,5-c]pyridin-5(4H)-yl)(oxazol-5-yl)methanone]",1 to 5
11,"CN1CCN(c2ccc3c(C(=O)N4CCc5[nH]cnc5[C@H]4c4nc5cccc(F)c5o4)cnn3c2)CC1 [Example 363, (S)-(4-(7-fluorobenzo[d]oxazol-2-yl)-6,7-dihydro-1H-imidazo[4,5-c]pyridin-5(4H)-yl)(6-(4-methylpiperazin-1-yl)pyrazolo[1,5-a]pyridin-3-yl)methanone]",≤ 0.5
12,"O=C(c1ocnc1C(F)F)N1CCc2[nH]cnc2[C@@H]1c1nc2cccc(OC(F)(F)F)c2o1 [Example 531, (R)-(4-(difluoromethyl)oxazol-5-yl)(4-(7-(trifluoromethoxy)benzo[d]oxazol-2-yl)-6,7-dihydro-1H-imidazo[4,5-c]pyridin-5(4H)-yl)methanone]",≤ 0.5
13,"Cn1nc(Cl)nc1C(=O)N1CCc2[nH]cnc2[C@@H]1c1nc2c(F)cccc2o1 [Example 278, (R)-(3-chloro-1-methyl-1H-1,2,4-triazol-5-yl)(4-(4-fluorobenzo[d]oxazol-2-yl)-6,7-dihydro-1H-imidazo[4,5-c]pyridin-5(4H)-yl)methanone]",1 to 5
14,"Cc1ncoc1C(=O)N1CCc2[nH]cnc2[C@@H]1c1nc2c(F)cccc2o1 [Example 600, (R)-(4-(4-fluorobenzo[d]oxazol-2-yl)-6,7-dihydro-1H-imidazo[4,5-c]pyridin-5(4H)-yl)(4-methyloxazol-5-yl)methanone]",1 to 5
15,"O=C(c1cnn2cc(N3CCOCC3)ccc12)N1CCc2[nH]cnc2[C@@H]1c1nc2cccc(F)c2o1 [Example 366, (R)-(4-(7-fluorobenzo[d]oxazol-2-yl)-6,7-dihydro-1H-imidazo[4,5-c]pyridin-5(4H)-yl)(6-morpholinopyrazolo[1,5-a]pyridin-3-yl)methanone]",1 to 5
16,"COc1ccc2oc([C@H]3c4nc[nH]c4CCN3C(=O)c3oc(C(C)(C)O)nc3C(F)F)nc2c1 [Example 340, (R)-(4-(difluoromethyl)-2-(2-hydroxypropan-2-yl)oxazol-5-yl)(4-(5-methoxybenzo[d]oxazol-2-yl)-6,7-dihydro-1H-imidazo[4,5-c]pyridin-5(4H)-yl)methanone]",1 to 5
17,"Cn1nc(Cl)nc1C(=O)N1CCc2[nH]cnc2[C@H]1c1nc2ccc(F)cc2o1 [Example 343, (S)-(3-chloro-1-methyl-1H-1,2,4-triazol-5-yl)(4-(6-fluorobenzo[d]oxazol-2-yl)-6,7-dihydro-1H-imidazo[4,5-c]pyridin-5(4H)-yl)methanone]",1 to 5
18,"Cc1cc(C(=O)N2CCc3[nH]cnc3[C@@H]2c2nc3cccc(C)c3o2)n(C)n1 [Example 782, (R)-(1,3-dimethyl-1H-pyrazol-5-yl)(4-(7-methylbenzo[d]oxazol-2-yl)-6,7-dihydro-1H-imidazo[4,5-c]pyridin-5(4H)-yl)methanone]",0.5 to 1
19,"O=C(c1oc(-c2cncnc2)nc1C(F)F)N1CCc2[nH]cnc2[C@H]1c1nc2cccc(F)c2o1 [Example 742, (S)-(4-(difluoromethyl)-2-(pyrimidin-5-yl)oxazol-5-yl)(4-(7-fluorobenzo[d]oxazol-2-yl)-6,7-dihydro-1H-imidazo[4,5-c]pyridin-5(4H)-yl)methanone]",≤ 0.5
20,[2H][C@@]1(c2nc3cc(F)ccc3o2)c2nc[nH]c2CCN1C(=O)c1oc(C(C)(C)O)nc1C(F)F [Example 905],≤ 0.5
21,"Cc1cc(F)c2oc([C@H]3c4nc[nH]c4CCN3C(=O)c3ocnc3C(F)F)nc2c1 [Example 502, (R)-(4-(difluoromethyl)oxazol-5-yl)(4-(7-fluoro-5-methylbenzo[d]oxazol-2-yl)-6,7-dihydro-1H-imidazo[4,5-c]pyridin-5(4H)-yl)methanone]",≤ 0.5

# Same assay, conditions: A375 cells expressing R408W PAH; 24 hrs with compound, then 20 μM sepiapterin and 800 μM 13C9,15N-Phenylalanine for 4 hours; 13C-Tyrosine by LC-MS; average where tested multiple times
row,SMILES,AC50 [µM]
1,Cc1nc(N2CCC(F)CC2)oc1C(=O)N1CCc2[nH]cnc2C1c1nc2cc(F)ccc2o1 (stereo not shown),1 to 5
2,O=C(c1cnn2cc(N3CCN(CC(F)(F)F)CC3)ccc12)N1CCc2[nH]cnc2C1c1nc2cc(F)ccc2o1 (stereo not shown),≥ 5
3,Cc1nnc(C(=O)N2CCc3[nH]cnc3C2c2nc3cc(F)ccc3o2)o1 (stereo not shown),≥ 5
4,CNCCc1ccc2c(C(=O)N3CCc4[nH]cnc4C3c3nc4cc(F)ccc4o3)cnn2c1 (stereo not shown),≥ 5
